Experiment [1] has as its target EGFR L858R/T790M/C797S triple mutant (H520*) (Homo sapiens (Human), UniProt P00533, C797S/L858R/T790M). Kind of experiment: EGFR protein degradation assay (Western blot). The experiment is classed as cell-based. Particulars: 72 hours, 300 nM to 10 nM. Here is the method: (§1) EGFR Protein Degradation assay
Cells were incubated overnight at 37° C., 5% CO2 prior to compound addition. A 10 mM compound stock in DMSO was serially diluted in DMSO to provide the following stock concentrations: 1, 0.3, 0.1, 0.03 and 0.01 mM. An appropriate volume of each compound dilution, together with a DMSO vehicle control, was added to media to provide a 2× compound solution. […] At the end of the compound treatment, cells were washed once with ice-cold phosphate-buffered saline (PBS) and treated with lysis solution (1× lysis buffer, Cell Signaling Technologies (CST #9803) supplemented with Piarce™ protease inhibitors, #A32953, Thermo Fisher Scientific, TFS). Lysates were collected and clarified of cell debris by spinning at 10K rpm for 10 minutes. A specific volume of supernatant was retrieved for protein quantification (Pierce™ BCA kit, TFS #23225) and for Western analysis. Loading buffer supplemented with EDTA and reducing agent was added to each supernatant. A specific volume of supernatant (determined by protein assay: […] loaded per sample) was loaded into a NuPAGE™ 4-12% Bis-Tris gel (TFS). Samples were run at 165V in MOPS running buffer for 2 hours and then transferred to PVDF blotting membrane using a dry blotting system (iBlot2, TFS). Membranes were blocked in Tris-buffered saline supplemented with Tween, 0.1% (TBST) containing 5% non-fat dry milk, (AmericanBio). Following block, membranes were washed once with TBST. […] Membranes were washed 3× with TBST prior to addition of secondary antibody (1:10 000, anti-rabbit HRP-linked, CST #7074) in TBST with 3% BSA and then incubated at room temperature for one hour. Membranes were then washed 3× with TBS and signal developed by exposure to developer (SuperSignal West Femto, TFS) for 5 minutes. Membranes were then immediately imaged using a BioRad Chemidoc.
In general terms: Immunoblotting shows a protein as a band on a membrane.

The target in another experiment is EGFR L858R/T790M (Homo sapiens (Human), UniProt P00533, L858R/T790M). Kind of experiment: TR-FRET assay for ERBB kinases. In kind it is biochemical. To be noted: geometric mean if measured more than once. Here is the method:
(§2) TR-FRET Assay for ERBB Kinases
(§3) All compounds and PROTACs were serially diluted in three-fold increments using 100% DMSO, followed by an intermediate 10-fold dilution using Buffer A (50 mM HEPES, pH 7.5, 50 mM NaCl, 10 mM MgCl2, 1 mM DTT, and 0.1% Pluronic F-68). […] Next, 10 uL of protein kinase in Buffer A was added to each well of the assay plate and pre-incubated with compound for 10 minutes. Kinase reactions were then initiated by addition of 5 uL substrate mix containing 3 mM ATP and 30 uM fluorescein-labeled Poly-GluTyr (Thermo Fisher, #PV3610) in Buffer A and allowed to proceed for 10 minutes at room temperature. Reactions were quenched by addition of a 5 uL mixture containing 5 nM LanthaScreen® Tb-pY20 Antibody (Thermo Fisher, #PV3552) and 40 mM EDTA in Buffer A. Assay plates were then read using a Synergy2 (Biotek Instruments, Winooski, Vt.) via excitation thru a 340/20 nm bandpass filter and emission collected thru 490/10 nm (donor) and 520/25 nm (acceptor) bandpass filters.
(TR-FRET usually uses a lanthanide donor and a delayed reading to cut background.)

The next experiment has as its target EGFR L858R/T790M/C797S (Homo sapiens (Human), UniProt P00533, C797S/L858R/T790M). Nature of the experiment: TR-FRET assay for ERBB kinases. In kind it is biochemical. Particulars: geometric mean if measured more than once. Here is the method:
as §2, §3

A further experiment deals with EGFR WT (Homo sapiens (Human), UniProt P00533). Nature of the experiment: TR-FRET assay for ERBB kinases. The experiment is classed as biochemical. Particulars: geometric mean if measured more than once. As for the experimental part: as §2, §3
The target of another experiment is EGFR Exon20NPG (Homo sapiens (Human), UniProt P00533, INS770NPG). Nature of the experiment: TR-FRET assay for ERBB kinases. The experiment is classed as biochemical. To be noted: geometric mean if measured more than once. As for the experimental part: as §2
All compounds and PROTACs were serially diluted in three-fold increments using 100% DMSO, followed by an intermediate 10-fold dilution using Buffer A (50 mM HEPES, pH 7.5, 50 mM NaCl, 10 mM MgCl2, 1 mM DTT, and 0.1% Pluronic F-68). Two microliters of serially diluted compound or PROTAC were then transferred to black 384-well Proxiplates (PerkinElmer, #6008260) using an Integra Viaflo96. Next, 10 uL of protein kinase in Buffer A was added to each well of the assay plate and pre-incubated with compound for 10 minutes. Kinase reactions were then initiated by addition of 5 uL substrate mix containing 3 mM ATP and 30 uM fluorescein-labeled Poly-GluTyr (Thermo Fisher, #PV3610) in Buffer A and allowed to proceed for 10 minutes at room temperature. Reactions were quenched by addition of a 5 uL mixture containing 5 nM LanthaScreen® Tb-pY20 Antibody (Thermo Fisher, #PV3552) and 40 mM EDTA in Buffer A. Assay plates were then read using a Synergy2 (Biotek Instruments, Winooski, Vt.) via excitation thru a 340/20 nm bandpass filter and emission collected thru 490/10 nm (donor) and 520/25 nm (acceptor) bandpass filters.

For experiment [2], the target named is EGFR L858R/T790M double mutant (H1975) (Homo sapiens (Human), UniProt P00533, L858R/T790M). Nature of the experiment: EGFR protein degradation assay (Western blot). The experiment is classed as cell-based. Particulars: 72 hours, 300 nM to 10 nM. Here is the method: as §1
Sequence of EGFR L858R/T790M double mutant (H1975) (P00533 25-1210 T790M/L858R): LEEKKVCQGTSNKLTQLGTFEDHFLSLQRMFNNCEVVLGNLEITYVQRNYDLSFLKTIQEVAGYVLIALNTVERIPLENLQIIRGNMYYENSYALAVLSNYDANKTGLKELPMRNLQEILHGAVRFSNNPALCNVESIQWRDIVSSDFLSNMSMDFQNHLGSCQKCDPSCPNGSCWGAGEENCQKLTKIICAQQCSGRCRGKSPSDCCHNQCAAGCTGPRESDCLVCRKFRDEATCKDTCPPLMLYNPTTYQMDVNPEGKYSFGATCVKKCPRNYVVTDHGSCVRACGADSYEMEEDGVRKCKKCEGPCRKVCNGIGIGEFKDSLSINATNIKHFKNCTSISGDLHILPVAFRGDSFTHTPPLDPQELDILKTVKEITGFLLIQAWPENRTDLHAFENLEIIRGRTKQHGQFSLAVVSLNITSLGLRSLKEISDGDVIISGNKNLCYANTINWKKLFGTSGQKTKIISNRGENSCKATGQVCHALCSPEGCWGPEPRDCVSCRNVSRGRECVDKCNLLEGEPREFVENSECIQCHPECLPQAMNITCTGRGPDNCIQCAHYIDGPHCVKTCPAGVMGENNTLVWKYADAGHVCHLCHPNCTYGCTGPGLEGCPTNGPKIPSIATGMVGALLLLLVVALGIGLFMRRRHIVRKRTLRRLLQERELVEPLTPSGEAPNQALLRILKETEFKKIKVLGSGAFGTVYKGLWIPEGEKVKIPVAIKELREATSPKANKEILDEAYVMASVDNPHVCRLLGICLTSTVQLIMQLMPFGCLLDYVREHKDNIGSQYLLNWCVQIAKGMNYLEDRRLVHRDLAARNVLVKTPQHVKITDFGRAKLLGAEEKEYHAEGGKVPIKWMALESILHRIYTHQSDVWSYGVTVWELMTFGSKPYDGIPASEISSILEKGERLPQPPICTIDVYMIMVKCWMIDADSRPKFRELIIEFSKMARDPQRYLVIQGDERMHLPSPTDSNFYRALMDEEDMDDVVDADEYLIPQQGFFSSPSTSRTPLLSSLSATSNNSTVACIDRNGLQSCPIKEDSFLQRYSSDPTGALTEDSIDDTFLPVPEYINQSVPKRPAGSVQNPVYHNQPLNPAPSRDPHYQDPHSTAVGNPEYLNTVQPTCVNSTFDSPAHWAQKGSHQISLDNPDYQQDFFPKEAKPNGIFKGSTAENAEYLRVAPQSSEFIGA
Cells expressing the appropriate form of EGFR were seeded in 6-well plates (300,000 cells per well) and allowed to adhere to the plate overnight. […] To harvest cells, media was removed and cells were washed once with ice-cold phosphate-buffered saline (PBS) prior to the addition of 400 μl lysis buffer (Cell Signaling Technology) supplemented with a protease inhibitor cocktail (Thermo Scientific). Cells were scraped from the plate and the cell lysate transferred to an Eppendorf tube and then clarified by a single spin at 10 000 rpm for 10 minutes. The protein concentration of each lysate was determined (BCA kit, Thermo Scientific) prior to the addition of loading buffer (Invitrogen) and reducing agent (Invitrogen). 10 μg protein of each lysate was loaded on an SDS/PAGE gel and run at 165V for 2 hours. Following transfer to a PVDF membrane (iBlot2, Thermo Fisher Scientific), the membrane was blocked in Tris-buffered saline containing 0.1% Tween-20 (TBS-T) and supplemented with 5% powdered milk for 1 hour. Membranes were then probed with EGFR and tubulin (loaded control) primary antibodies in TBS-T containing 3% bovine serum albumin (BSA) overnight at 4° C. Membranes were washed thrice with TBS-T before incubation with secondary antibody in TBS-T containing 3% bovine serum albumin (BSA) and incubated for 1 hour at room temperature. Following 3 further washes with TBS, membrane proteins of interest were detected by enzyme-linked chemiluminescence (ECL) using a Chemidoc (Bio-Rad).

Sequence of EGFR L858R/T790M/C797S triple mutant (H520*) (P00533 25-1210 T790M/C797S/L858R): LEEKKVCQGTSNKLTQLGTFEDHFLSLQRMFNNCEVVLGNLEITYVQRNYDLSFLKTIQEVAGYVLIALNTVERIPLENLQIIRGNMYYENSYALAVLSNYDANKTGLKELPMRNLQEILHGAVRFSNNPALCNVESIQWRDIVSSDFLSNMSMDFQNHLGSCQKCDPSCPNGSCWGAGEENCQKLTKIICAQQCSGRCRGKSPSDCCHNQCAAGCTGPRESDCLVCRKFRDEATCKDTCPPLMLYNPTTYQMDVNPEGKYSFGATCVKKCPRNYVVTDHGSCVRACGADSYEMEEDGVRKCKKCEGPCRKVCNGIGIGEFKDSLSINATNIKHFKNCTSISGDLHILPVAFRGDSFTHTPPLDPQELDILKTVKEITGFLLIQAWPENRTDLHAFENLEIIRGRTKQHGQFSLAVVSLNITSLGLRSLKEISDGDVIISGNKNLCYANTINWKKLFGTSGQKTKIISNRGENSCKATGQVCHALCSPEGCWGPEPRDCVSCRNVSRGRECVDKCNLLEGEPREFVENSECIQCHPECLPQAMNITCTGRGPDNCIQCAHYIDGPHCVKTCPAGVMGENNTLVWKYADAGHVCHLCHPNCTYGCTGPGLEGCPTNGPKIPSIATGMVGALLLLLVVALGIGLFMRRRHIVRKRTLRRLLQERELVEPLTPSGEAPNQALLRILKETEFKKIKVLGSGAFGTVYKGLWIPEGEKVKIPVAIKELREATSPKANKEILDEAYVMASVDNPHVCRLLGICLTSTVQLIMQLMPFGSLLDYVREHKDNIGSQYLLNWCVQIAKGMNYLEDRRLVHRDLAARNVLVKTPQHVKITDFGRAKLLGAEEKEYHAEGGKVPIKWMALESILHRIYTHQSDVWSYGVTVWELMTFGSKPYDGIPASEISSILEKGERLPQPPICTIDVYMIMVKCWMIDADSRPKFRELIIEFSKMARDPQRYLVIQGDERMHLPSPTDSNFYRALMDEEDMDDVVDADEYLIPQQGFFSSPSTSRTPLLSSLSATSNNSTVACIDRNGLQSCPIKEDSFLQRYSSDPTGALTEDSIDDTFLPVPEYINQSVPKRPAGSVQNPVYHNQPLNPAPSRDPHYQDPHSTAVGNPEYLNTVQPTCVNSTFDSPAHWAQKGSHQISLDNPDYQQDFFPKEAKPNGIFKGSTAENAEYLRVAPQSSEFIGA
Sequence of EGFR L858R/T790M/C797S (P00533 25-1210 T790M/C797S/L858R): as above
Sequence of EGFR L858R/T790M (P00533 25-1210 T790M/L858R): as the sequence (P00533 25-1210 T790M/L858R) above

As a reminder, the IC50 is the concentration needed to halve the response being measured. For `COC1CCN(c2nccc(Nc3cc4c(cn3)nc(COCCN3CCN(c5ccc(OCCCOCC(=O)N[C@H](C(=O)N6C[C@H](O)C[C@H]6C(=O)NCc6ccc(-c7scnc7C)cc6)C(C)(C)C)cc5)CC3)n4C(C)C)n2)CC1` [compound 303], the “EGFR protein remaining, EGFR L858R/T790M/C797S triple mutant” value in experiment [1] is “A (≤50% EGFR protein remaining after 72 hours of incubation with the test compound at a concentration between 300 nM and 10 nM)”. The IC50 on EGFR L858R/T790M was 0.55 µM; at EGFR L858R/T790M/C797S it was 0.25 µM; on EGFR WT it was more than 30 µM.
Turning to `O=C1CCC(N2C(=O)c3cccc(NCCOCCOCC#Cc4cccc5c4C(=O)N([C@@H](C(=O)Nc4nccs4)c4cc(F)ccc4O)C5)c3C2=O)C(=O)N1` (stereo partly shown) [compound 264], the concentration for half-maximal inhibition (IC50) at EGFR Exon20NPG was 24 µM; at EGFR L858R/T790M, more than 30 µM; at EGFR L858R/T790M/C797S, 1.1 µM; at EGFR WT, 4.2 µM. In addition, the “EGFR protein remaining, EGFR L858R/T790M double mutant” value in experiment [2] was “C (>80% EGFR protein remaining after 72 hours of incubation with the test compound at a concentration of 300 nM)”.
For `O=C1CCC(N2C(=O)c3cccc(NCCOCCOCCOCCOCCOCCOCC#Cc4cccc5c4C(=O)N(C(C(=O)Nc4nccs4)c4cc(F)ccc4O)C5)c3C2=O)C(=O)N1` (stereo not shown) [compound 295], in experiment [1], the “EGFR protein remaining, EGFR L858R/T790M/C797S triple mutant” value is on record as “C (>80% EGFR protein remaining after 72 hours of incubation with the test compound at a concentration of 300 nM)”. In addition, the IC50 on EGFR L858R/T790M turned out to be 3.1 µM; at EGFR L858R/T790M/C797S, 0.71 µM; at EGFR WT, 34 µM.
Taken in the same sequence, the figures for `Cc1ncsc1-c1ccc([C@H](C)NC(=O)[C@@H]2C[C@@H](O)CN2C(=O)[C@@H](NC(=O)COCCOCCOCCOCCOCCOCCOCC#Cc2cccc3c2C(=O)N(C(C(=O)Nc2nccs2)c2cc(F)ccc2O)C3)C(C)(C)C)cc1` (stereo partly shown) [compound 299] were “C (>80% EGFR protein remaining after 72 hours of incubation with the test compound at a concentration of 300 nM)”, 4.6 µM, 0.2 µM and 0.24 µM.
For `O=C1CCC(N2C(=O)c3ccc(N4CCN(CCCC#Cc5cccc6c5C(=O)N(C(C(=O)Nc5nccs5)c5cc(F)ccc5O)C6)CC4)cc3C2=O)C(=O)N1` (stereo not shown) [compound 96], the concentration for half-maximal inhibition (IC50) was found to be 2.5 µM at EGFR Exon20NPG, 10 µM on EGFR L858R/T790M, 4.6 µM at EGFR L858R/T790M/C797S and 1.9 µM on EGFR WT. The “EGFR protein remaining, EGFR L858R/T790M double mutant” value in experiment [2] is “C (>80% EGFR protein remaining after 72 hours of incubation with the test compound at a concentration of 300 nM)”.
Take `CC(C)n1c(COCCN2CCN(c3ccc(OCCCN4CCN(c5ccc6c(c5)C(=O)N(C5CCC(=O)NC5=O)C6=O)CC4)cc3)CC2)nc2cnc(Nc3ccnc(-c4cnn(S(=O)(=O)C5CC5)c4)n3)cc21` (stereo not shown) [compound 305]: in experiment [1], the “EGFR protein remaining, EGFR L858R/T790M/C797S triple mutant” value is given as “C (>80% EGFR protein remaining after 72 hours of incubation with the test compound at a concentration of 300 nM)”. Also, the half-inhibitory concentration (IC50) stood at 0.0098 µM on EGFR L858R/T790M, 0.0013 µM at EGFR L858R/T790M/C797S and 2.1 µM on EGFR WT.
For the compound `COC1CCN(c2nccc(Nc3cc4c(cn3)nc(COCCN3CCN(CCOCC(=O)N[C@H](C(=O)N5C[C@H](O)C[C@H]5C(=O)N[C@@H](C)c5ccc(-c6scnc6C)cc5)C(C)(C)C)CC3)n4C(C)C)n2)CC1` [compound 86], the half-maximal inhibitory concentration (IC50) at EGFR Exon20NPG was 24 µM; on EGFR L858R/T790M, 12 µM; on EGFR L858R/T790M/C797S, 2.4 µM; on EGFR WT, more than 30 µM. In experiment [2], the “EGFR protein remaining, EGFR L858R/T790M double mutant” value is listed as “C (>80% EGFR protein remaining after 72 hours of incubation with the test compound at a concentration of 300 nM)”.
For `Cc1ncsc1-c1ccc([C@H](C)NC(=O)[C@H]2C[C@H](O)CN2C(=O)[C@@H](NC(=O)COCCN2CCN(CCCC#Cc3cccc4c3C(=O)N(C(C(=O)Nc3nccs3)c3cc(F)ccc3O)C4)CC2)C(C)(C)C)cc1` (stereo partly shown) [compound 91] the same measures were 8.3 µM, 4.7 µM, 0.66 µM, 4.3 µM and “C (>80% EGFR protein remaining after 72 hours of incubation with the test compound at a concentration of 300 nM)”.
Taken in the same sequence, the figures for `COC1CCN(c2nccc(Nc3cc4c(cn3)nc(COCCCN3CCN(CCCOCC(=O)N[C@H](C(=O)N5C[C@H](O)C[C@H]5C(=O)N[C@@H](C)c5ccc(-c6scnc6C)cc5)C(C)(C)C)CC3)n4C(C)C)n2)CC1` [Example 85, (2S,4R)-4-hydroxy-1-((S)-2-(2-(3-(4-(3-((1-isopropyl-6-((2-(4-methoxypiperidin-1-yl)pyrimidin-4-yl)amino)-1H-imidazo[4,5-c]pyridin-2-yl)methoxy)propyl)piperazin-1-yl)propoxy)acetamido)-3,3-dimethylbutanoyl)-N—((S)-1-(4-(4-methylthiazol-5-yl)phenyl)ethyl)pyrrolidine-2-carboxamide] were more than 30 µM, 16 µM, 3.9 µM, more than 30 µM and “C (>80% EGFR protein remaining after 72 hours of incubation with the test compound at a concentration of 300 nM)”.
Taken in the same sequence, the figures for `O=C1CCC(N2C(=O)c3ccc(OCCOCCOCCOCCOCCOCC#Cc4cccc5c4C(=O)N([C@@H](C(=O)Nc4nccs4)c4cc(F)ccc4O)C5)cc3C2=O)C(=O)N1` (stereo partly shown) [compound 263] were 12 µM, 11 µM, 0.79 µM, 8.6 µM and “C (>80% EGFR protein remaining after 72 hours of incubation with the test compound at a concentration of 300 nM)”.
